# Results: US20050245399A1, “Pyrazole derivatives as herbicidal compositions containing them” (ISHIHARA SANGYO KAISHA, LTD., priority 2004, published 2005)
# Legend:
# Type in all cases: in vivo
# [1] = test system: barnyardgrass (Echinochloa crus-galli L.): ECHCG; assay: Test Example 1 pre-emergence herbicidal activity, ECHCG; conditions: visually observed 20th to 23rd day after application
# Description: (§1) Upland field soil was put into a 1/170,000 ha pot, and seeds of various plants {1. barnyardgrass (Echinochloa crus-galli L.): ECHCG, 2. crabgrass (Digitaria sanguinalis L.): DIGSA, 3. green foxtail (Setaria viridis L.): SETVI, 4. redroot pigweed (Amaranthus retroflexus L.): AMARE, 5. prickly sida (Sida spinosa L.): SEDSP, 6. velvetleaf (Abutilon theophrasti): ABUTH, 7. common cocklebur (Xanthium strumarium L.): XANST, 8. rice (Oryza sativa L.): ORYSA, 9. wheat (Triticum aestivum L.): TRZAX, 10. corn (Zea mays L.): ZEAMX, 11. soybean (Glycine max Merr.): GLXMA} were sown. Then, one day after the sowing, a wettable powder or emulsifiable concentrate having the compound of the present invention formulated in accordance with a usual formulation method, was weighed so that the active ingredient would be a predetermined amount and diluted with water in an amount of 500 L/ha. The herbicide adjusted was applied by a small size sprayer for preemergence treatment. On the 20th to 23rd day after the application of the herbicide, the growth of the respective plants was visually observed, and the herbicidal effects were evaluated by growth controlling degrees (%) ranging from 0 (equivalent to the untreated control) to 100 (complete kill), whereby the results shown in Table 4, were obtained. Compound Nos. in Table 4 correspond to Compound Nos. in Table 1 and 2 given hereinbefore.
# [2] = test system: crabgrass (Digitaria sanguinalis L.): DIGSA; assay: Test Example 1 pre-emergence herbicidal activity, DIGSA; conditions: visually observed 20th to 23rd day after application
# Description: as §1
# [3] = test system: green foxtail (Setaria viridis L.): SETVI; assay: Test Example 1 pre-emergence herbicidal activity, SETVI; conditions: visually observed 20th to 23rd day after application
# Description: as §1
# [4] = test system: redroot pigweed (Amaranthus retroflexus L.): AMARE; assay: Test Example 1 pre-emergence herbicidal activity, AMARE; conditions: visually observed 20th to 23rd day after application
# Description: as §1
# [5] = test system: prickly sida (Sida spinosa L.): SEDSP; assay: Test Example 1 pre-emergence herbicidal activity, SIDSP; conditions: visually observed 20th to 23rd day after application
# Description: as §1
# [6] = test system: velvetleaf (Abutilon theophrasti): ABUTH; assay: Test Example 1 pre-emergence herbicidal activity, ABUTH; conditions: visually observed 20th to 23rd day after application
# Description: as §1
# [7] = test system: rice (Oryza sativa L.): ORYSA; assay: Test Example 1 pre-emergence herbicidal activity, ORYSA; conditions: visually observed 20th to 23rd day after application
# Description: as §1
# [8] = test system: wheat (Triticum aestivum L.): TRZAX; assay: Test Example 1 pre-emergence herbicidal activity, TRZAX; conditions: visually observed 20th to 23rd day after application
# Description: as §1
# [9] = test system: corn (Zea mays L.): ZEAMX; assay: Test Example 1 pre-emergence herbicidal activity, ZEAMX; conditions: visually observed 20th to 23rd day after application
# Description: as §1
# [10] = test system: soybean (Glycine max Merr.): GLXMA; assay: Test Example 1 pre-emergence herbicidal activity, GLXMA; conditions: visually observed 20th to 23rd day after application
# Description: as §1
# [11] = test system: barnyardgrass (Echinochloa crus-galli L.), ECHCG; assay: Test Example 2 post-emergence (foliage treatment) herbicidal activity, ECHCG; conditions: 63 g a.i./ha
# Description: (§2) Upland field soil was put into a 1/170,000 ha pot, and seeds of various plants were sown. Then, when the plants reached predetermined leaf stages {1. barnyardgrass (Echinochloa crus-galli L.), ECHCG: 1.1-2.1 leaf stage, 2. crabgrass (Digitaria sanguinalis L.), DIGSA: 1.0-2.0 leaf stage, 3. green foxtail (Setaria viridis L.), SETVI: 1.0-2.2 leaf stage, 4. redroot pigweed (Amaranthus retroflexus L.), AMARE: 0.1-1.5 leaf stage, 5. prickly sida (Sida spinosa L.), SIDSP: 0.1-0.6 leaf stage, 6. velvetleaf (Abutilon theophrasti), ABUTH: 0.1-0.6 leaf stage, 7. common cocklebur (Xanthium strumarium L.), XANST: 0.1 leaf stage, 8. rice (Oryza sativa L.), ORYSA; 1.0-2 leaf stage, 9. wheat (Triticum aestivum L.), TRZAX: 2.3-3.5 leaf stage, 10. corn (Zea mays L.), ZEAMXN 2.1-2.6 leaf stage, 11. soybean (Glycine max Merr.), GLXMA: primary leaf stage}, a wettable powder or emulsifiable concentrate having the compound of the present invention formulated in accordance with a usual formulation method, was weighed so that the active ingredient would be a predetermined amount, and diluted with water in an amount of 500 L/ha. To the diluted solution, 0.1% (v/v) of an agricultural spreader was added. The herbicide adjusted was applied by a small size sprayer for foliage treatment. On the 20th to 23rd day after the application of the herbicide, the growth of the respective plants was visually observed, and the herbicidal effects were evaluated by growth controlling degrees (%) ranging from 0 (equivalent to the untreated control) to 100 (complete kill), whereby the results shown in Table 5, were obtained. Compound Nos. in Table 5 correspond to Compound Nos. in Table 1 and 2 given hereinbefore.
# [12] = test system: crabgrass (Digitaria sanguinalis L.), DIGSA; assay: Test Example 2 post-emergence (foliage treatment) herbicidal activity, DIGSA; conditions: 63 g a.i./ha
# Description: as §2
# [13] = test system: green foxtail (Setaria viridis L.), SETVI; assay: Test Example 2 post-emergence (foliage treatment) herbicidal activity, SETVI; conditions: 63 g a.i./ha
# Description: as §2
# [14] = test system: prickly sida (Sida spinosa L.), SIDSP; assay: Test Example 2 post-emergence (foliage treatment) herbicidal activity, SIDSP; conditions: 63 g a.i./ha
# Description: as §2
# [15] = test system: velvetleaf (Abutilon theophrasti), ABUTH; assay: Test Example 2 post-emergence (foliage treatment) herbicidal activity, ABUTH; conditions: 63 g a.i./ha
# Description: as §2
# [16] = test system: rice (Oryza sativa L.), ORYSA; assay: Test Example 2 post-emergence (foliage treatment) herbicidal activity, ORYSA; conditions: 63 g a.i./ha
# Description: as §2
# [17] = test system: wheat (Triticum aestivum L.), TRZAX; assay: Test Example 2 post-emergence (foliage treatment) herbicidal activity, TRZAX; conditions: 63 g a.i./ha
# Description: as §2
# [18] = test system: corn (Zea mays L.), ZEAMX; assay: Test Example 2 post-emergence (foliage treatment) herbicidal activity, ZEAMX; conditions: 63 g a.i./ha
# Description: as §2
# [19] = test system: soybean (Glycine max Merr.), GLXMA; assay: Test Example 2 post-emergence (foliage treatment) herbicidal activity, GLXMA; conditions: 63 g a.i./ha
# Description: as §2
Structure (SMILES),Pre-emergence Herbicidal Activity ECHCG (growth controlling degree) ([1]; Rate 63 g a.i./ha),Pre-emergence Herbicidal Activity DIGSP (growth controlling degree) ([2]; Rate 63 g a.i./ha),Pre-emergence Herbicidal Activity SETVI (growth controlling degree) ([3]; Rate 63 g a.i./ha),Pre-emergence Herbicidal Activity AMARE (growth controlling degree) ([4]; Rate 63 g a.i./ha),Pre-emergence Herbicidal Activity SIDSP (growth controlling degree) ([5]; Rate 63 g a.i./ha),Pre-emergence Herbicidal Activity ABUTH (growth controlling degree) ([6]; Rate 63 g a.i./ha),Pre-emergence Herbicidal Activity ORYSA (growth controlling degree) ([7]; Rate 63 g a.i./ha),Pre-emergence Herbicidal Activity TRZAX (growth controlling degree) ([8]; Rate 63 g a.i./ha),Pre-emergence Herbicidal Activity ZEAMX (growth controlling degree) ([9]; Rate 63 g a.i./ha),Pre-emergence Herbicidal Activity GLXMA (growth controlling degree) ([10]; Rate 63 g a.i./ha),"growth controlling degree, ECHCO [11]","growth controlling degree, DIGSP [12]","growth controlling degree, SETVI [13]","growth controlling degree, SIDSP [14]","growth controlling degree, ABUTH [15]","growth controlling degree, ORYSA [16]","growth controlling degree, TRZAX [17]","growth controlling degree, ZEAMX [18]","growth controlling degree, GLXMA [19]",also measured
COCCC(=O)Nc1c(OC)c(Cl)cc(F)c1-c1nn(C)c(OC(F)F)c1Cl [Compound 1-40],100%,100%,100%,100%,100%,100%,80%,60%,60%,30%,100%,80%,100%,100%,100%,100%,50%,70%,95%,
COc1c(Cl)cc(F)c(-c2nn(C)c(OC(F)F)c2Cl)c1NC(=O)CCc1ccc(F)cc1 [Compound 1-267],70%,100%,95%,100%,80%,100%,30%,20%,0%,0%,,,,,,,,,,
COc1c(Cl)cc(F)c(-c2nn(C)c(OC(F)F)c2Cl)c1NC(=O)CCc1ccccc1F [Compound 1-269],80%,100%,100%,100%,100%,80%,40%,40%,10%,0%,,,,,,,,,,
COc1c(Cl)cc(F)c(-c2nn(C)c(OC(F)F)c2Cl)c1NC(=O)C=Cc1ccccc1F [Compound 1-256],60%,90%,70%,100%,60%,70%,30%,10%,0%,0%,60%,60%,90%,100%,100%,80%,60%,30%,60%,
COc1c(Cl)cc(F)c(-c2nn(C)c(OC(F)F)c2Cl)c1NC(=O)C(C)Cc1ccccc1 (stereo not shown) [Compound 1-268],40%,100%,80%,100%,70%,80%,30%,20%,0%,0%,,,,,,,,,,
COc1c(Cl)cc(F)c(-c2nn(C)c(OC(F)F)c2Cl)c1NC(=O)CCc1cccc(F)c1 [Compound 1-266],60%,100%,80%,100%,100%,50%,10%,40%,0%,0%,,,,,,,,,,
COc1c(Cl)cc(F)c(-c2nn(C)c(OC(F)F)c2Cl)c1NC(=O)c1ccc2ccccc2c1 [Compound 1-271],,,,,,,,,,,,,,,,,,,,Pre-emergence Herbicidal Activity ECHCG (growth controlling degree) ([1]; Rate 125 g a.i./ha): 70%; Pre-emergence Herbicidal Activity DIGSP (growth controlling degree) ([2]; Rate 125 g a.i./ha): 100%; Pre-emergence Herbicidal Activity SETVI (growth controlling degree) ([3]; Rate 125 g a.i./ha): 90%; Pre-emergence Herbicidal Activity AMARE (growth controlling degree) ([4]; Rate 125 g a.i./ha): 100%; Pre-emergence Herbicidal Activity SIDSP (growth controlling degree) ([5]; Rate 125 g a.i./ha): 100%; Pre-emergence Herbicidal Activity ABUTH (growth controlling degree) ([6]; Rate 125 g a.i./ha): 40%; Pre-emergence Herbicidal Activity ORYSA (growth controlling degree) ([7]; Rate 125 g a.i./ha): 60%; Pre-emergence Herbicidal Activity TRZAX (growth controlling degree) ([8]; Rate 125 g a.i./ha): 10%; Pre-emergence Herbicidal Activity ZEAMX (growth controlling degree) ([9]; Rate 125 g a.i./ha): 20%; Pre-emergence Herbicidal Activity GLXMA (growth controlling degree) ([10]; Rate 125 g a.i./ha): 20%
COc1c(Cl)cc(F)c(-c2nn(C)c(OC(F)F)c2Cl)c1NCCOc1ccccc1 [Compound 1-77],0%,0%,10%,,0%,0%,0%,0%,0%,0%,70%,60%,95%,100%,100%,40%,30%,60%,60%,
